According to US20230201226A1, “COMBINATION THERAPY FOR REDUCING DRUG-INDUCED NEPHROTOXICITY, DYSLIPIDEMIA AND HYPERGLYCEMIA” (Yissum Research Development Company of the Hebrew …, priority 2020, published 2023):

Assays:
[1] = test system: human proximal tubule cells (hPTCs); details: 48 hours
[2] = test system: Human primary proximal tubule cells (hPTC); assay: Phospholipidosis (Red Phospholipidosis reagent) and neutral lipid (Green LipidTox) staining of kidney cells exposed to kidney damaging agents; type: cell-based; details: 48 hours
Procedure: Testing the effect of combination therapy on human kidney cells exposed to kidney damaging agents—Human primary proximal tubule cells (hPTC) were seeded at density of 10,000 cells/cm^2 in a black 96-well plate. When the cells reach 80% density, treatments were induced. […] The drugs were induced either alone (controls) or in combination with Empagliflozin (SGLT2i) at 5 μM or Fenofibrate at 20 μM, themselves in combination with Quercetin at 20 μM. All different solutions included 1× Red Phospholipidosis staining reagent as well. hPTC were incubated with the different combinations for 48 hours at 37° C. 5% CO2 […]. After 48 hours, the media were removed and replaced with Green LipidTox stain to stain for neutral lipids in green (diluted at 1:200 in hPTC medium). After 45 minutes of incubation at 37° C., the plate was mounted onto a Zeiss epifluorescent microscope for quantification. Each condition was tested in three biological replicates, and light settings were the same for all the images. Images were analyzed with ImageJ. […]

| Compound | survival of human proximal tubule cells (hPTCs) ([1]; co-administration with 1 mM gentamicin, Empagliflozin 5 μM or Fenofibrate 20 μM) | prevention of Cyclosporine A, Cisplatin and Gentamicin induced lipotoxicity by co-administration ([2]; Cyclosporine A 1 μM, Cisplatin 1 μM or Gentamicin 1 mM, Empagliflozin 5 μM or Fenofibrate 20 μM) | cell death ([1]; hPTC, 1 mM gentamicin by itself) | induced lipotoxicity of the kidneys (phospholipids and neutral lipids) ([2]; kidney damaging agent alone: Cyclosporine A 1 μM, Cisplatin 1 μM, Gentamicin 1 mM) |
| --- | --- | --- | --- | --- |
| OC[C@H]1O[C@@H](c2ccc(Cl)c(Cc3ccc(O[C@H]4CCOC4)cc3)c2)[C@H](O)[C@@H](O)[C@@H]1O [empagliflozin, Empagliflozin] | dramatically increased the survival | prevented |  |  |
| Gentamicin |  |  | induced massive cell death | induced lipotoxicity |
